# Assay results reported in BindingDB's records for doi:10.1016/j.chembiol.2003.08.010 (Brigham and Women's Hospital, 2003).
# What was measured:
# [1] = molecular target: T1, Ubiquitin carboxyl-terminal hydrolase isozyme L3 (Mus musculus, UniProt Q9JKB1); experiment: Inhibition Activity Assay; conditions: pH 7.6; 25 °C
# T1 sequence (Q9JKB1 whole entry): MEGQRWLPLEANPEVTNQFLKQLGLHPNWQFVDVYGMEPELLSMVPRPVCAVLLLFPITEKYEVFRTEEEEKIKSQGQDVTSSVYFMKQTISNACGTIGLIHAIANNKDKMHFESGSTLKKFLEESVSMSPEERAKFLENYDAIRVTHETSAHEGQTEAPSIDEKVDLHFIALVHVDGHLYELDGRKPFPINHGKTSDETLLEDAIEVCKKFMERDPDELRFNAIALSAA
# Excerpt: (§1) Inhibition activity and selectivity for UCH-L1 and UCH-L3.
# [2] = molecular target: T2, Ubiquitin carboxyl-terminal hydrolase isozyme L1 (Mus musculus, UniProt Q9R0P9); experiment: Inhibition Activity Assay; conditions: pH 7.6; 25 °C
# T2 sequence (Q9R0P9 whole entry): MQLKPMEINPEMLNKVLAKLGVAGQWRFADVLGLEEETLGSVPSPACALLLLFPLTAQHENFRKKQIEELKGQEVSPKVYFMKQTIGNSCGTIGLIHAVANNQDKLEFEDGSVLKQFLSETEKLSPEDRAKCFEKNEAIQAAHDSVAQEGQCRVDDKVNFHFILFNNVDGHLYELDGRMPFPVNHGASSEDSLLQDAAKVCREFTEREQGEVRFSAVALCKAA
# Excerpt: as §1
SMILES,IC50 [1] [µM],IC50 [2] [µM]
COc1ccc(-n2c(C=Cc3ccc(O)c(OC)c3)nc3ccccc3c2=O)cc1 [SMR000516541],52,12
COc1ccccc1-c1cc(-c2ccccc2)nc(SCC(=O)O)c1C#N [2-[[3-cyano-4-(2-methoxyphenyl)-6-phenyl-2-pyridinyl]thio]acetic acid],23,0.94
"COc1ccc2nc(C3CCCCC3)nc(C3CCCCC3)c2c1 [2,4-Dicyclohexyl-6-methoxy-quinazoline]",47,126
Cc1nc(N=NC(C)c2ccc(Br)cc2)cc(N2CCCCC2)n1 (configuration not stated) [N-[1-(4-bromophenyl)ethylideneamino]-2-methyl-6-piperidin-1-ylpyrimidin-4-amine],16,2.6
COc1ccc(N(CC(=O)NCCSCc2cccc(Cl)c2)S(C)(=O)=O)cc1Cl [N-[2-[(3-chlorobenzyl)thio]ethyl]-2-(3-chloro-N-mesyl-4-methoxy-anilino)acetamide],22,1.3
Cc1ccccc1C(=O)Nc1scc(-c2ccc(Br)cc2)c1C(=O)O,32,6
"Cc1cc(Cl)c2oc(C(=O)N3CCC(O)(c4ccccc4)CC3)c(C)c2c1 [1-[(7-chloro-3,5-dimethyl-1-benzofuran-2-yl)carbonyl]-4-phenylpiperidin-4-ol]",25,1.2
Cc1cccc(NC(=O)c2nc[nH]c2C(=O)N[C@@H](CC(C)C)C(=O)OCc2ccccc2)c1 [benzyl (2S)-4-methyl-2-[[4-[(3-methylphenyl)carbamoyl]-1H-imidazole-5-carbonyl]amino]pentanoate],33,12
Cc1cccc(NC(=O)c2nc[nH]c2C(=O)N[C@@H](Cc2ccccc2)C(=O)OC(C)(C)C)c1 [tert-butyl (2S)-2-[[4-[(3-methylphenyl)carbamoyl]-1H-imidazole-5-carbonyl]amino]-3-phenylpropanoate],52,12
Cc1ccc(-c2cc(-c3ccccc3)nc(N(C)N)n2)cc1 [1-methyl-1-[4-(4-methylphenyl)-6-phenylpyrimidin-2-yl]hydrazine],113,4.1
CC1=CC(=O)c2ccccc2C1=O [Vitamin K3],71,290
c1ccc(-c2nc(C3CCCCC3)c3ccccc3n2)cc1 [4-Cyclohexyl-2-phenyl-quinazoline],0.6,75
CCCCn1c(=O)c(C(=O)NCc2ccccc2Cl)c(O)c2ccccc21 [MLS001202596],41,17
CCC1=NN(C(=O)c2ccccc2O)C(O)(c2ccccc2)C1 (configuration not stated) [(3-ethyl-5-hydroxy-5-phenyl-4H-pyrazol-1-yl)-(2-hydroxyphenyl)methanone],72,3.4
CC(C)(C)OC(=O)[C@H](Cc1ccccc1)NC(=O)c1[nH]cnc1C(=O)Nc1ccc(Cl)cc1 [SMR000465882],24,16
"CCCOc1ccc(/C=C/c2c([N+](=O)[O-])c(=O)n(C)c(=O)n2C)cc1 [1,3-dimethyl-5-nitro-6-[(E)-2-(4-propoxyphenyl)vinyl]pyrimidine-2,4-quinone]",17,0.81
